#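 Each compound was tested at five concentrations against cells in 96-well plates for 48 hours. TGI denotes the concentration required for complete inhibition of growth.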
# How the values were obtained:
# Assay in all cases: inhibition of tumour cell growth, NCI panel, 48 h
# HOP-92 NSCLC = system: HOP-92 NSCLC
# HCT-15 colon = system: HCT-15 colon
# BT-549 breast = system: BT-549 breast
# TK-10 renal = system: TK-10 renal
# OVCAR-3 ovarian = system: OVCAR-3 ovarian
# RXF 393 renal = system: RXF 393 renal
# 786-0 renal = system: 786-0 renal
# MDA-N = system: MDA-N
# MOLT-4 leukemia = system: MOLT-4 leukemia
# ACHN renal = system: ACHN renal
# SW-620 colon = system: SW-620 colon
# LOX IMVI melanoma = system: LOX IMVI melanoma
# NCI-H23 lung = system: NCI-H23 lung
# NCI-H226 lung = system: NCI-H226 lung
# MDA-MB-435 = system: MDA-MB-435
# NCI-H522 lung = system: NCI-H522 lung
# OVCAR-8 ovarian = system: OVCAR-8 ovarian
# SN12C renal = system: SN12C renal
# HCT-116 colon = system: HCT-116 colon
# OVCAR-5 ovarian = system: OVCAR-5 ovarian
# DU-145 prostate = system: DU-145 prostate
# SK-MEL-5 melanoma = system: SK-MEL-5 melanoma
# M14 melanoma = system: M14 melanoma
# NCI/ADR-RES ovarian = system: NCI/ADR-RES ovarian
# MDA-MB-231 breast = system: MDA-MB-231 breast
# HCC-2998 colon = system: HCC-2998 colon
# CAKI-1 renal = system: CAKI-1 renal
# COLO 205 colon = system: COLO 205 colon
# SK-OV-3 ovarian = system: SK-OV-3 ovarian
# NCI-H460 lung = system: NCI-H460 lung
# SF-295 CNS = system: SF-295 CNS
# KM12 colon = system: KM12 colon
# MCF7 breast = system: MCF7 breast
# HT29 colon = system: HT29 colon
# RPMI-8226 leukemia = system: RPMI-8226 leukemia
# SR leukemia = system: SR leukemia
# EKVX NSCLC = system: EKVX NSCLC
# UACC-257 melanoma = system: UACC-257 melanoma
# A549 NSCLC = system: A549 NSCLC
# HOP-62 NSCLC = system: HOP-62 NSCLC
# U251 CNS = system: U251 CNS
# SNB-19 CNS = system: SNB-19 CNS
# SF-268 CNS = system: SF-268 CNS
# SF-539 CNS = system: SF-539 CNS
# CCRF-CEM leukemia = system: CCRF-CEM leukemia
# A498 renal = system: A498 renal
# OVCAR-4 ovarian = system: OVCAR-4 ovarian
# K-562 leukemia = system: K-562 leukemia
# T-47D breast = system: T-47D breast
# SK-MEL-2 melanoma = system: SK-MEL-2 melanoma
# SK-MEL-28 melanoma = system: SK-MEL-28 melanoma
# HS 578T breast = system: HS 578T breast
# UO-31 renal = system: UO-31 renal
# UACC-62 melanoma = system: UACC-62 melanoma
# MALME-3M melanoma = system: MALME-3M melanoma
# HL-60(TB) leukemia = system: HL-60(TB) leukemia
# IGROV1 ovarian = system: IGROV1 ovarian
# PC-3 prostate = system: PC-3 prostate
# SNB-75 CNS = system: SNB-75 CNS
smiles,measurement,setting,value
O=C1/C(=C\c2cccc(Oc3ccccc3)c2)SC(c2ccccc2)N1c1cccc([N+](=O)[O-])c1 (stereo not given),TGI,HOP-92 NSCLC,> 100 µM
same,TGI,HCT-15 colon,> 100 µM
same,TGI,BT-549 breast,> 100 µM
same,TGI,TK-10 renal,> 100 µM
same,TGI,OVCAR-3 ovarian,> 100 µM
same,TGI,RXF 393 renal,> 100 µM
same,TGI,786-0 renal,> 100 µM
same,TGI,MDA-N,> 100 µM
same,TGI,MOLT-4 leukemia,> 100 µM
same,TGI,ACHN renal,> 100 µM
same,TGI,SW-620 colon,> 100 µM
same,TGI,LOX IMVI melanoma,> 100 µM
same,TGI,NCI-H23 lung,> 100 µM
same,TGI,NCI-H226 lung,> 100 µM
same,TGI,MDA-MB-435,> 100 µM
same,TGI,NCI-H522 lung,> 100 µM
same,TGI,OVCAR-8 ovarian,> 100 µM
same,TGI,SN12C renal,> 100 µM
same,TGI,HCT-116 colon,> 100 µM
same,TGI,OVCAR-5 ovarian,> 100 µM
same,TGI,DU-145 prostate,> 100 µM
same,TGI,SK-MEL-5 melanoma,> 100 µM
same,TGI,M14 melanoma,> 100 µM
same,TGI,NCI/ADR-RES ovarian,> 100 µM
same,TGI,MDA-MB-231 breast,> 100 µM
same,TGI,HCC-2998 colon,> 100 µM
same,TGI,CAKI-1 renal,> 100 µM
same,TGI,COLO 205 colon,> 100 µM
same,TGI,SK-OV-3 ovarian,> 100 µM
same,TGI,NCI-H460 lung,> 100 µM
same,TGI,SF-295 CNS,> 100 µM
same,TGI,KM12 colon,> 100 µM
same,TGI,MCF7 breast,> 100 µM
same,TGI,HT29 colon,> 100 µM
same,TGI,RPMI-8226 leukemia,> 100 µM
same,TGI,SR leukemia,> 100 µM
same,TGI,EKVX NSCLC,> 100 µM
same,TGI,UACC-257 melanoma,> 100 µM
same,TGI,A549 NSCLC,> 100 µM
same,TGI,HOP-62 NSCLC,> 100 µM
same,TGI,U251 CNS,> 100 µM
same,TGI,SNB-19 CNS,> 100 µM
same,TGI,SF-268 CNS,> 100 µM
same,TGI,SF-539 CNS,63.3 µM
same,TGI,CCRF-CEM leukemia,81.2 µM
same,TGI,A498 renal,> 100 µM
same,TGI,OVCAR-4 ovarian,> 100 µM
same,TGI,K-562 leukemia,> 100 µM
same,TGI,T-47D breast,> 100 µM
same,TGI,SK-MEL-2 melanoma,> 100 µM
same,TGI,SK-MEL-28 melanoma,> 100 µM
same,TGI,HS 578T breast,> 100 µM
same,TGI,UO-31 renal,> 100 µM
same,TGI,UACC-62 melanoma,> 100 µM
same,TGI,MALME-3M melanoma,> 100 µM
CNc1ccc(S(=O)Nc2ccccc2)cc1 (stereo not given),TGI,HL-60(TB) leukemia,> 100 µM
same,TGI,HCT-15 colon,> 100 µM
same,TGI,TK-10 renal,> 100 µM
same,TGI,OVCAR-3 ovarian,> 100 µM
same,TGI,786-0 renal,> 100 µM
same,TGI,MDA-N,> 100 µM
same,TGI,MOLT-4 leukemia,> 100 µM
same,TGI,ACHN renal,> 100 µM
same,TGI,SW-620 colon,> 100 µM
same,TGI,LOX IMVI melanoma,> 100 µM
same,TGI,NCI-H23 lung,> 100 µM
same,TGI,NCI-H226 lung,> 100 µM
same,TGI,MDA-MB-435,> 100 µM
same,TGI,IGROV1 ovarian,> 100 µM
same,TGI,NCI-H522 lung,96.7 µM
same,TGI,OVCAR-8 ovarian,> 100 µM
same,TGI,SN12C renal,> 100 µM
same,TGI,HCT-116 colon,> 100 µM
same,TGI,OVCAR-5 ovarian,> 100 µM
same,TGI,DU-145 prostate,> 100 µM
same,TGI,SK-MEL-5 melanoma,91.1 µM
same,TGI,NCI/ADR-RES ovarian,> 100 µM
same,TGI,MDA-MB-231 breast,> 100 µM
same,TGI,HCC-2998 colon,> 100 µM
same,TGI,COLO 205 colon,83.5 µM
same,TGI,NCI-H460 lung,> 100 µM
same,TGI,SF-295 CNS,> 100 µM
same,TGI,KM12 colon,> 100 µM
same,TGI,MCF7 breast,> 100 µM
same,TGI,HT29 colon,> 100 µM
same,TGI,RPMI-8226 leukemia,> 100 µM
same,TGI,SR leukemia,> 100 µM
same,TGI,EKVX NSCLC,> 100 µM
same,TGI,UACC-257 melanoma,> 100 µM
same,TGI,A549 NSCLC,> 100 µM
same,TGI,HOP-62 NSCLC,> 100 µM
same,TGI,U251 CNS,> 100 µM
same,TGI,SNB-19 CNS,> 100 µM
same,TGI,SF-268 CNS,> 100 µM
same,TGI,SF-539 CNS,> 100 µM
same,TGI,CCRF-CEM leukemia,> 100 µM
same,TGI,OVCAR-4 ovarian,> 100 µM
same,TGI,K-562 leukemia,> 100 µM
same,TGI,T-47D breast,49.5 µM
same,TGI,SK-MEL-2 melanoma,> 100 µM
same,TGI,SK-MEL-28 melanoma,> 100 µM
same,TGI,HS 578T breast,> 100 µM
same,TGI,UO-31 renal,> 100 µM
same,TGI,UACC-62 melanoma,81.3 µM
same,TGI,MALME-3M melanoma,> 100 µM
OC(c1cc(-c2ccccc2)nc2c1ccc1ccccc12)C1CCCCN1 (stereo not given),TGI,HOP-92 NSCLC,3.56 µM
same,TGI,PC-3 prostate,3.07 µM
same,TGI,HL-60(TB) leukemia,1.13 µM
same,TGI,BT-549 breast,25 µM
same,TGI,TK-10 renal,3.5 µM
same,TGI,OVCAR-3 ovarian,3.29 µM
same,TGI,RXF 393 renal,3.03 µM
same,TGI,786-0 renal,3.04 µM
same,TGI,MDA-N,2.97 µM
same,TGI,MOLT-4 leukemia,> 100 µM
same,TGI,ACHN renal,3.26 µM
same,TGI,NCI-H226 lung,> 100 µM
same,TGI,MDA-MB-435,3.33 µM
same,TGI,IGROV1 ovarian,2.98 µM
same,TGI,SN12C renal,3.1 µM
same,TGI,HCT-116 colon,2.92 µM
same,TGI,DU-145 prostate,3.45 µM
same,TGI,SK-MEL-5 melanoma,8.55 µM
same,TGI,M14 melanoma,3.22 µM
same,TGI,MDA-MB-231 breast,3.36 µM
same,TGI,HCC-2998 colon,0.586 µM
same,TGI,CAKI-1 renal,4.04 µM
same,TGI,SK-OV-3 ovarian,3.32 µM
same,TGI,NCI-H460 lung,3.62 µM
same,TGI,SF-295 CNS,3.44 µM
same,TGI,KM12 colon,3.35 µM
same,TGI,EKVX NSCLC,5.4 µM
same,TGI,SNB-75 CNS,3.43 µM
same,TGI,UACC-257 melanoma,3.41 µM
same,TGI,HOP-62 NSCLC,3.24 µM
same,TGI,U251 CNS,3.15 µM
same,TGI,SF-268 CNS,2.88 µM
same,TGI,A498 renal,3.76 µM
same,TGI,K-562 leukemia,> 100 µM
same,TGI,SK-MEL-2 melanoma,3.17 µM
same,TGI,SK-MEL-28 melanoma,3.18 µM
same,TGI,HS 578T breast,3.53 µM
same,TGI,UO-31 renal,2.45 µM
same,TGI,UACC-62 melanoma,3.46 µM
same,TGI,MALME-3M melanoma,3.19 µM
CC(=O)O[C@H]1C(=O)N(c2cc3c4ccccc4ccc3c3ccccc23)[C@@H]1c1ccccc1,TGI,HOP-92 NSCLC,45.7 µM
same,TGI,PC-3 prostate,65.3 µM
same,TGI,HCT-15 colon,> 100 µM
same,TGI,TK-10 renal,47.1 µM
same,TGI,OVCAR-3 ovarian,4.86 µM
same,TGI,RXF 393 renal,8.95 µM
same,TGI,786-0 renal,15.9 µM
same,TGI,MDA-N,> 100 µM
same,TGI,MOLT-4 leukemia,> 100 µM
same,TGI,ACHN renal,89.2 µM
same,TGI,LOX IMVI melanoma,33.1 µM
same,TGI,NCI-H23 lung,37.3 µM
same,TGI,NCI-H226 lung,40.3 µM
same,TGI,MDA-MB-435,5.68 µM
same,TGI,IGROV1 ovarian,8.27 µM
same,TGI,OVCAR-8 ovarian,32.1 µM
same,TGI,SN12C renal,26.7 µM
same,TGI,HCT-116 colon,14.4 µM
same,TGI,OVCAR-5 ovarian,> 100 µM
same,TGI,DU-145 prostate,43.9 µM
same,TGI,SK-MEL-5 melanoma,67.1 µM
same,TGI,M14 melanoma,23.1 µM
same,TGI,NCI/ADR-RES ovarian,29.5 µM
same,TGI,MDA-MB-231 breast,48.2 µM
same,TGI,HCC-2998 colon,26.8 µM
same,TGI,CAKI-1 renal,35.5 µM
same,TGI,COLO 205 colon,18.1 µM
same,TGI,SK-OV-3 ovarian,35.8 µM
same,TGI,NCI-H460 lung,> 100 µM
same,TGI,SF-295 CNS,53.5 µM
same,TGI,KM12 colon,27.1 µM
same,TGI,MCF7 breast,> 100 µM
same,TGI,HT29 colon,6.98 µM
same,TGI,RPMI-8226 leukemia,6.77 µM
same,TGI,SR leukemia,40.3 µM
same,TGI,EKVX NSCLC,74.2 µM
same,TGI,SNB-75 CNS,7.2 µM
same,TGI,UACC-257 melanoma,> 100 µM
same,TGI,A549 NSCLC,61.6 µM
same,TGI,HOP-62 NSCLC,32.9 µM
same,TGI,U251 CNS,> 100 µM
same,TGI,SNB-19 CNS,> 100 µM
same,TGI,SF-268 CNS,> 100 µM
same,TGI,SF-539 CNS,13.2 µM
same,TGI,CCRF-CEM leukemia,> 100 µM
same,TGI,A498 renal,89.6 µM
same,TGI,OVCAR-4 ovarian,49.5 µM
same,TGI,K-562 leukemia,> 100 µM
same,TGI,T-47D breast,98.6 µM
same,TGI,SK-MEL-2 melanoma,9.4 µM
same,TGI,SK-MEL-28 melanoma,66.4 µM
same,TGI,HS 578T breast,25.1 µM
same,TGI,UO-31 renal,28 µM
same,TGI,UACC-62 melanoma,24 µM
same,TGI,MALME-3M melanoma,54.1 µM
